Assay: xn = mol fraction of the nth substance listed

C=C[n+]1ccn(CCCC)c1.N[C@@H](CO)C(=O)[O-] + O
101.3 kPa
Conditions	electrical conductivity [S/m]	viscosity [mPa·s]
293.15 K, x1 = 0.3	–	17
303.15 K, x1 = 0.1	1.37	6
303.15 K, x1 = 0.9	–	1832
323.15 K, x1 = 1	0.017	4800
333.15 K, x1 = 0.5	–	38.96
343.15 K, x1 = 1	–	1737
353.15 K, x1 = 0.1	–	4.35
353.15 K, x1 = 0.5	–	35.95
353.15 K, x1 = 1	–	1154

O=S(=O)([O-])C(F)(F)F.[Li+] + O
Conditions	electrical conductivity, 298.1 K [S/m]	electrical conductivity, 298.15 K [S/m]	electrical conductivity, 308.15 K [S/m]	electrical conductivity, 318.15 K [S/m]	electrical conductivity, 328.15 K [S/m]	viscosity, 298.15 K [mPa·s]	viscosity, 308.15 K [mPa·s]	viscosity, 318.15 K [mPa·s]	viscosity, 328.15 K [mPa·s]
100 kPa, x1 = 0.1122	–	7.3	8.94	10.9	12.7	3.7	2.9	2.27	1.85
100 kPa, x1 = 0.1783	–	4.63	5.73	6.99	8.17	9.2	6.9	5.3	4.2
100 kPa, x1 = 0.2388	–	2.6	3.26	4.06	4.89	21.9	16	11.1	8.6
100 kPa, x1 = 0.2541	–	1.98	2.53	3.16	3.92	31.8	22.6	15.9	12.2
100 kPa, x1 = 0.2743	–	1.56	2.04	2.59	3.2	47.2	32.9	23.9	18.1
101 kPa, x1 = 0.01944	4.69	–	–	–	–	–	–	–	–
101 kPa, x1 = 0.1527	4.69	–	–	–	–	–	–	–	–
101 kPa, x1 = 0.2649	1.34	–	–	–	–	–	–	–	–
101 kPa, x1 = 0.3106	0.51	–	–	–	–	–	–	–	–

Reference: the CheMixHub ionic liquid set
